Data on 9 molecules can be found in patent US12416034B2, “Recombinant production of steviol glycosides” (EVOLVA SA, priority 2011, dated 2025).

One data set relates to S. cerevisiae. Nature of the data set: Toxicity of intermediates: growth of S. cerevisiae CEN.PK. The class given is cell-based. The following applies: growth of CEN.PK transformants. The source says: The effect on S. cerevisiae vitality of geranyl geranyl pyrophosphate (GGPP), ent-copalyl diphosphate (CDP) or ent-kaurene production was investigated by expression of Synechococcus sp GGPPS alone (GGPP production), the GGPPS and the 50 amino acid N-terminally truncated Zea mays CDPS (see Example 16) together (CDP production), or the GGPPS, truncated CDPS and the Arabidopsis thaliana kaurene synthase (KS5) together (ent kaurene production) in the laboratory S. cerevisiae strain CEN.PK background. Genes were expressed from 2μ plasmids with GPD promoters driving transcription of truncated CDPS and KS5, while transcription of the GGPPS was driven by the ADH1 promoter. The growth of S. cerevisiae CEN.PK transformed with various combinations of these plasmids (GGPPS alone; GGPPS+truncated CDPS; or GGPPS+truncated CDPS+KS5) or plasmids without gene insertions was observed. GGPP production, and especially CDP production, was toxic to S. cerevisiae when produced as end products.

The nature of the next data set: RebA solubility in water. The class given is physicochemical. Here is the method: The solubility of RebA determines the concentration that can be used both for the whole-cell approach and for the cell-free approach. Several different solutions of RebA in water were made and left at room temperature for several days. After 24 hours of storage, RebA precipitated at concentrations of 50 mM or higher. Twenty-five mM RebA started to precipitate after 4-5 days, while 10 mM or lower concentrations remained in solution, even when stored at 4° C.

Data set [1] has as its system Stevia rebaudiana kaurene oxidase. The data set is described as follows: Ent-kaurenoic acid accumulation in EFSC2386 with different CPRs (activation of KO1). The settings on record: LC-MS peak area; with KO-1 in EFSC2386. The class given is cell-based, S. cerevisiae. The source says:
The CEN.PK S. Cerevisiae EFSC2386 strain and the CPRs referred to in this Example are described in the Example 11 (“Identification of S. rebaudiana KAH”). EFSC2386 contained the following integrated genes: Aspergillus nidulans Geranyl geranyl pyrophosphate synthase (GGPPS); Zea mays ent-copalyl diphosphate synthase (CDPS); Stevia rebaudiana ent-kaurene synthase (KS); and Stevia rebaudiana ent-kaurene oxidase (KO). This strain produces ent-kaurenoic acid that was detected by LC-MS analysis.
A collection of cytochrome P450 reductases (CPRs) were expressed and tested in strain EFSC2386; “CPR1” (S. rebaudiana NADPH dependent cytochrome P450 reductase, Kumar et al., Accession no. DQ269454); “ATR1” (A. thaliana CPR, Accession No. CAA23011); “ATR2” (A. thaliana CPR, Accession No. CAA46815); “CPR7” (S. rebaudiana CPR, CPR7 is similar to “CPR1”); “CPR8” (S. rebaudiana CPR, similar to Artemisia annua CPR; and “CPR4” (S. cerevisiae NCP1, Accession No. YHR042W).
Overexpression of the S. cerevisiae endogenous native CPR (referred to as CPR4 in Table 14), and especially overexpression of one of the A. thaliana CPRs namely ATR2, gives good activation of the Stevia rebaudiana kaurene oxidase (the latter called KO1 in Table 14) and results in increased accumulation of ent-kaurenoic acid. See Table 14, which presents the area under curve (AUC) of the ent-kaurenoic acid peak in the LC-MS chromatograms. KO1 is an ent-kaurenoic acid producing yeast control strain without additional overexpression of CPRs.

Data set [2] relates to S. cerevisiae strain BY4741. Nature of the data set: Steviol-feeding experiment of S. cerevisiae strain BY4741. In kind it is cell-based. As for the experimental part:
Further experiments were conducted to determine if the codon-optimized UGT85C2 could reduce 19-SMG accumulation and increase rubusoside and higher glycosylated steviol glycosides production. The production of 19-SMG and rubusoside were analysed in a steviol-feeding experiment of S. cerevisiae strain BY4741 expressing the wild type UGT74G1 as well as the codon-optimized UGT85C2 from high copy (2p) vectors under strong constitutive promoter (GPD1) (vectors P426-GPD and P423-GPD, respectively). Whole culture samples (without cell removal) were taken and boiled in an equal volume of DMSO for total glycosides levels. Intracellular concentrations reported were obtained by pelleting cells, and resuspending in 50% DMSO to the volume of the original culture sample taken, followed by boiling. The “total” glycosides level and the normalized intracellular level then were measured using LC-MS. Using wild type UGT74G1 and wild type UGT85C2, approximately 13.5 μM rubusoside was produced in total with a maximum normalized intracellular concentration of about 7 μM. In contrast, when wild type UGT74G1 and codon-optimized UGT85C2 were used, a maximum of 26 μM rubusoside was produced, or approximately double of what was produced using the wild type UGT85C2. Additionally, the maximum normalized intracellular concentration of rubusoside was 13 μM, again an approximate doubling of what was produced using wild type UGT85C2. […] Consequently, about 10 μM less total 19-SMG was measured for the codon-optimized UGT85C2.

The mark [3] stands for this setting: co-expressed with wild type UGT74G1, steviol feeding.

A value given as a limit tells only on which side of the number the result lay.

Chain of Stevia rebaudiana kaurene oxidase (as listed by the source): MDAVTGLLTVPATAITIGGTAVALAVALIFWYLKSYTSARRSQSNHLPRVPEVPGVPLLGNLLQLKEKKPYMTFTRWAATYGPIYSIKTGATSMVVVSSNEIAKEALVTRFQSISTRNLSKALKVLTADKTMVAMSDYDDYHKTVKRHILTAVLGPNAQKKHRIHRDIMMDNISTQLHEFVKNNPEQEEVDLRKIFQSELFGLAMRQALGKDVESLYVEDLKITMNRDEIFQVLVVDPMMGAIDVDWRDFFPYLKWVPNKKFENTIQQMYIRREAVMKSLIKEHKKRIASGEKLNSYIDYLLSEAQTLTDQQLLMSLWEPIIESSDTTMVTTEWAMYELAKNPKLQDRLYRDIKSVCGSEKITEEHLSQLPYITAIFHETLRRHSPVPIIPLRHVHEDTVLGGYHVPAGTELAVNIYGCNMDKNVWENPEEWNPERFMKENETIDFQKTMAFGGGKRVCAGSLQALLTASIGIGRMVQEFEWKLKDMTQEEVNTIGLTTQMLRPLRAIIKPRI

Turning to `C=C1CC[C@@H]2C(C)(C)CCC[C@@]2(C)[C@@H]1CC/C(C)=C/COP(=O)(O)OP(=O)(O)O` [CDP, ent-copalyl diphosphate], the “toxicity to S. cerevisiae when produced as end product” value (from here on “toxicity to S. cerevisiae”) with S. cerevisiae is listed as “toxic”.

Take `CC(C)=CCC/C(C)=C/CC/C(C)=C/CC/C(C)=C/COP(=O)(O)OP(=O)(O)O` [GGPP, geranyl geranyl pyrophosphate]: the “toxicity to S. cerevisiae” value with S. cerevisiae is on record as “toxic”.

Regarding `C=C1C[C@@]23CC[C@H]4[C@@](C)(CCC[C@@]4(C)C(=O)O[C@@H]4O[C@H](CO)[C@@H](O)[C@H](O)[C@H]4O)[C@@H]2CC[C@]1(O[C@@H]1O[C@H](CO)[C@@H](O)[C@H](O[C@@H]2O[C@H](CO)[C@@H](O)[C@H](O)[C@H]2O)[C@H]1O[C@@H]1O[C@H](CO)[C@@H](O)[C@H](O)[C@H]1O)C3` [RebA, Rebaudioside A], the “time until precipitation started” value in “RebA solubility in water” (Twenty-five mM RebA in water) fell in the range of 4 to 5 days. Moreover, the “concentration at which RebA precipitated” value in the data set “RebA solubility in water” (water, room temperature, after 24 hours of storage) is not below 50000 µM. For the same molecule, the “concentration that remained in solution” value in the data set “RebA solubility in water” (water, several days, even when stored at 4° C.) was not below 10000 µM.

With `C=C1C[C@@]23CC[C@@H]4C(C)(C)CCC[C@@]4(C)[C@@H]2CC[C@@H]1C3` [ent-kaurene], in the data set with S. cerevisiae, the “toxicity to S. cerevisiae” value was “not be toxic”.

Consider “ATR-2: A. thaliana CPR, Accession No. CAA46815”, for which the “Ent-Kaurenoic Acid (AUC)” value in data set [1] is on record as 29412 AUC.

Regarding “CPR-1: S. rebaudiana NADPH dependent cytochrome P450 reductase, Accession no. DQ269454”, the “Ent-Kaurenoic Acid (AUC)” value in data set [1] turned out to be 14113 AUC.

Consider “CPR-8: S. rebaudiana CPR, similar to Artemisia annua CPR”, for which the “Ent-Kaurenoic Acid (AUC)” value in data set [1] was found to be 12590 AUC.

B1: CPR-4: S. cerevisiae NCP1, Accession No. YHR042W (protein, UniProt P16603 2-691, looked up)
NADPH--cytochrome P450 …: PFGIDNTDFTVLAGLVLAVLLYVKRNSIKELLMSDDGDITAVSSGNRDIAQVVTENNKNYLVLYASQTGTAEDYAKKFSKELVAKFNLNVMCADVENYDFESLNDVPVIVSIFISTYGEGDFPDGAVNFEDFICNAEAGALSNLRYNMFGLGNSTYEFFNGAAKKAEKHLSAAGAIRLGKLGEADDGAGTTDEDYMAWKDSILEVLKDELHLDEQEAKFTSQFQYTVLNEITDSMSLGEPSAHYLPSHQLNRNADGIQLGPFDLSQPYIAPIVKSRELFSSNDRNCIHSEFDLSGSNIKYSTGDHLAVWPSNPLEKVEQFLSIFNLDPETIFDLKPLDPTVKVPFPTPTTIGAAIKHYLEITGPVSRQLFSSLIQFAPNADVKEKLTLLSKDKDQFAVEITSKYFNIADALKYLSDGAKWDTVPMQFLVESVPQMTPRYYSISSSSLSEKQTVHVTSIVENFPNPELPDAPPVVGVTTNLLRNIQLAQNNVNIAETNLPVHYDLNGPRKLFANYKLPVHVRRSNFRLPSNPSTPVIMIGPGTGVAPFRGFIRERVAFLESQKKGGNNVSLGKHILFYGSRNTDDFLYQDEWPEYAKKLDGSFEMVVAHSRLPNTKKVYVQDKLKDYEDQVFEMINNGAFIYVCGDAKGMAKGVSTALVGILSRGKSITTDEATELIKMLKTSGRYQEDVW
Turning to B1, the “Ent-Kaurenoic Acid (AUC)” value in data set [1] was determined as 25103 AUC.

B2: codon-optimized UGT85C2: UGT85C2 expressed from the GeneArt codon-optimized sequence; amino acid sequence unchanged (protein, UniProt Q6VAB0 1-481, looked up)
UDP-glycosyltransferase 85C2: MDAMATTEKKPHVIFIPFPAQSHIKAMLKLAQLLHHKGLQITFVNTDFIHNQFLESSGPHCLDGAPGFRFETIPDGVSHSPEASIPIRESLLRSIETNFLDRFIDLVTKLPDPPTCIISDGFLSVFTIDAAKKLGIPVMMYWTLAACGFMGFYHIHSLIEKGFAPLKDASYLTNGYLDTVIDWVPGMEGIRLKDFPLDWSTDLNDKVLMFTTEAPQRSHKVSHHIFHTFDELEPSIIKTLSLRYNHIYTIGPLQLLLDQIPEEKKQTGITSLHGYSLVKEEPECFQWLQSKEPNSVVYVNFGSTTVMSLEDMTEFGWGLANSNHYFLWIIRSNLVIGENAVLPPELEEHIKKRGFIASWCSQEKVLKHPSVGGFLTHCGWGSTIESLSAGVPMICWPYSWDQLTNCRYICKEWEVGLEMGTKVKRDEVKRLVQELMGEGGHKMRNKAKDWKEKARIAIAPNGSSSLNIDKMVKEITVLARN
With B2, the “less total 19-SMG than with wild type UGT85C2” value in data set [2] is “about 10 μM”. Further, in data set [2] (setting [3]), the “maximum intracellular concentration of 19-SMG” value stood at 19 µM, the “maximum normalized intracellular concentration of rubusoside” value amounted to 13 µM and the “rubusoside produced in total” value was found to be 26 µM.
